Publication PMC8568133, “Evaluation of bisphenylthiazoles as a promising class for combating multidrug-resistant fungal infections” (PLoS ONE, 2021)
Values after ≈ are worked out from the molar mass of the structure shown. Like-named read-outs stand apart in the source and are kept apart here.

Tests used:
[1] = tested on: Candida auris; assay: Checkerboard assay of compound 17 with standard antifungals; format: cell-based; settings: for Interpretation of interaction: antifungal combined with compound 17; for MIC Combined, Antifungal: antifungal in combination with compound 17; for MIC: Candidozyma auris, checkerboard, agent alone
Protocol: To evaluate the interactions between bisphenylthiazoles and the standard antifungal agents (fluconazole, amphotericin B, 5-fluorocytosine and caspofungin) against 2 C. auris clinical isolates, a standard checkerboard assay was utilized as described in previous studies. The fractional inhibitory concentration index (FICI) was calculated for each interaction. Interactions where the FICI was ≤0.5 were categorized as synergistic (SYN). FICI values of >0.5–1.25 were categorized as additive (ADD). FICI values of >1.25–4 were categorized as indifferent, and FICI values of > 4 were categorized as antagonistic. The experiment was repeated three independent times.

[2] = tested on: Candida auris; assay: Antifungal broth microdilution MIC (50% growth inhibition) and MFC; format: cell-based; settings: for MIC: read-out: MIC
Protocol: (§1) Serial dilutions (from 128 μg/mL to 0.06 μg/mL) of the tested compounds and control drugs (fluconazole, itraconazole and amphotericin) (in triplicates), were screened against clinical isolates of Candida albicans, Candida auris, Candida glabrata, Candida parapsilosis, Candida tropicalis, Candida krusei, Cryptococcus neoformans, Cryptococcus gattii and Aspergillus fumigatus species using the broth microdilution method according to the Clinical and Laboratory Standards Institute guidelines. MICs were determined as the lowest concentration of the compounds that inhibited the fungal growth by 50% after incubation at 35 °C for 24 h (for Candida and Aspergillus), or 48 h (for Cryptococcus). The minimum fungicidal concentration (MFC) of these compounds was tested by plating 4 μL from wells with no growth onto YPD agar plates. The plates were incubated at 37 °C for 24 hours before recording the MFC, which was categorized as the lowest concentration that reduced fungal growth by 99.9% [45]. The experiment was repeated three independent times.

[3] = tested on: Candida tropicalis; assay: as above; format: cell-based; settings: Candida tropicalis, ATCC1369, C. tropicalis ATCC 1369
Protocol: as §1

[4] = tested on: Candida krusei; assay: as above; format: cell-based; settings: Pichia kudriavzevii; for MIC: read-out: MIC
Protocol: as §1

[5] = tested on: Candida albicans; assay: as above; format: cell-based; settings: Candida albicans; for MIC: read-out: MIC
Protocol: as §1

[6] = tested on: Cryptococcus gattii; assay: Antifungal broth microdilution MIC (50% growth inhibition, 48 h); format: cell-based; settings: Cryptococcus gattii, read-out: MIC
Protocol: as §1

[7] = tested on: Cryptococcus neoformans; assay: as above; format: cell-based; settings: Cryptococcus neoformans, read-out: MIC
Protocol: as §1

[8] = tested on: Candida parapsilosis; assay: Antifungal broth microdilution MIC (50% growth inhibition); format: cell-based; settings: Lodderomyces parapsilosis, read-out: MIC
Protocol: as §1

[9] = tested on: Candida strains; assay: Minimum fungicidal concentration, summary over Candida strains; format: cell-based; settings: strains of Table 6
Protocol: as §1

[10] = tested on: Lactobacillus casei ATCC-334; assay: Broth microdilution MIC against normal human microbiota; format: cell-based; settings: Lacticaseibacillus casei, ATCC334; Lactobacillus casei ATCC-334; read-out: MIC
Protocol: (§2) Broth microdilution was utilized to determine the activity of bisphenylthiazoles against the human gut microflora as described elsewhere. A bacterial solution equivalent to 0.5 McFarland standards was prepared and diluted in MRS broth to achieve a bacterial concentration of approximately 5 x 10^5 CFU/mL. Then, compounds/control antifungals (in triplicates), were added to the plates and serially diluted with media containing bacteria. The plates were incubated for 48 hours at 37 °C before recording the MIC values. The experiment was repeated three independent times.

[11] = tested on: Lactobacillus crispatus HM-370; assay: as above; format: cell-based; settings: HM370; Lactobacillus crispatus HM-370; read-out: MIC
Protocol: as §2

[12] = tested on: Lactobacillus gasseri HM-400; assay: as above; format: cell-based; settings: HM400; Lactobacillus gasseri HM-400; read-out: MIC
Protocol: as §2

[13] = tested on: E. coli JW55031 (tolC-mutant); assay: microbe, parasite or virus in culture; format: cell-based, Escherichia coli; settings: Escherichia coli
Protocol: (§3) The minimum inhibitory concentrations (MICs) of the tested compounds and control drugs against clinically-relevant bacterial strains were determined using the broth microdilution method, according to guidelines outlined by the Clinical and Laboratory Standards Institute (CLSI), or as described previously.
(§4) Initial screening of the bisphenylthiazoles against Gram-positive and Gram-negative bacteria. Bacterial strains, (except C. difficile that was grown anaerobically on brain heart infusion supplemented agar at 37° C for 48 hours), were grown aerobically overnight on tryptone soy agar plates at 37° C. Afterwards, a bacterial solution equivalent to 0.5 McFarland standard was prepared and diluted in cation-adjusted Mueller-Hinton broth (CAMHB) (for S. aureus, and E. coli) to achieve a bacterial concentration of about 5 × 10^5 CFU/mL. C. difficile was diluted in brain heart infusion supplemented broth, supplemented with yeast extract, hemin and vitamin K to achieve a bacterial concentration of about 5 × 10^5 CFU/mL. Compounds and control drugs were added in the first row of the 96 -well plates, and serially diluted with the corresponding media containing bacteria. Plates were then, incubated aerobi cally at 37° C for 18-20 hours (for S. aureus and E. coli). C. difficile was incubated anaerobically at 37° C for 48 hours. […]
(§5) the visual growth of bacteria.

[14] = tested on: C. difficile ATCC BAA1870; assay: Broth microdilution MIC, initial antibacterial screening (anaerobic); format: cell-based, Clostridioides difficile; settings: Clostridioides difficile, ATCCBAA1870, read-out: MIC
Protocol: as §3, §4, §5

[15] = tested on: E. coli BW25113 (wild-type); assay: Broth microdilution MIC, initial antibacterial screening; format: cell-based, Escherichia coli; settings: Escherichia coli, read-out: MIC
Protocol: as §3, §4, §5

[16] = tested on: MRSA USA300; assay: as above; format: cell-based, S. aureus; settings: Staphylococcus aureus; MRSA USA300; read-out: MIC
Protocol: as §3, §4, §5

[17] = Candida auris 381 (azole-sensitive)
[18] = Candida auris 385 (azole-resistant)
[19] = ATCC10231, C. albicans ATCC 10231

## C[C@@H]1[C@H](O)[C@@H](C)/C=C/C=C/C=C/C=C/C=C/C=C/C=C/[C@H](O[C@@H]2O[C@H](C)[C@@H](O)[C@H](N)[C@@H]2O)C[C@@H]2O[C@](O)(C[C@@H](O)C[C@@H](O)[C@H](O)CC[C@@H](O)C[C@@H](O)CC(=O)O[C@H]1C)C[C@H](O)[C@H]2C(=O)O [Amphotericin B, reference compound]
[1]; [17]
  Interpretation of interaction: ADD (FICI values of >0.5–1.25 were categorized as additive (ADD))
  MIC Combined, Antifungal: 1 µg/mL
  MIC: 1 µg/mL
[1]; [18]
  Interpretation of interaction: ADD (FICI values of >0.5–1.25 were categorized as additive (ADD))
  MIC Combined, Antifungal: 1 µg/mL
  MIC: 1 µg/mL
[2]; Candida auris 390
  MFC: 2 µg/mL (≈ 2.16 µM)
[2]; Candidozyma auris, C. auris 381
  MIC: 1 µg/mL (≈ 1.08 µM)
[2]; Candidozyma auris, C. auris 382
  MIC: 1 µg/mL (≈ 1.08 µM)
[2]; Candidozyma auris, C. auris 383
  MIC: 1 µg/mL (≈ 1.08 µM)
[2]; Candidozyma auris, C. auris 384
  MIC: 1 µg/mL (≈ 1.08 µM)
[2]; Candidozyma auris, C. auris 385
  MIC: 1 µg/mL (≈ 1.08 µM)
[2]; Candidozyma auris, C. auris 386
  MIC: 2 µg/mL (≈ 2.16 µM)
[2]; Candidozyma auris, C. auris 387
  MIC: 1 µg/mL (≈ 1.08 µM)
[2]; Candidozyma auris, C. auris 388
  MIC: 2 µg/mL (≈ 2.16 µM)
[2]; Candidozyma auris, C. auris 389
  MIC: 2 µg/mL (≈ 2.16 µM)
[2]; Candidozyma auris, C. auris 390
  MIC: 2 µg/mL (≈ 2.16 µM)
[2]; Candidozyma auris, Candida auris 389, read-out: MFC
  MFC: 2 µg/mL (≈ 2.16 µM)
[3]
  MFC: 2 µg/mL (≈ 2.16 µM)
[3]; read-out: MIC
  MIC: 1 µg/mL (≈ 1.08 µM)
[4]; ATCC34135, C. krusei ATCC 34135
  MIC: 2 µg/mL (≈ 2.16 µM)
[4]; C. krusei CAB 396420
  MFC: 2 µg/mL (≈ 2.16 µM)
  MIC: 2 µg/mL (≈ 2.16 µM)
[5]; [19]
  MFC: 1 µg/mL (≈ 1.08 µM)
  MIC: 1 µg/mL (≈ 1.08 µM)
[5]; C. albicans NR-29448 (fluconazole-resistant)
  MIC: 1 µg/mL (≈ 1.08 µM)
[5]; C. albicans SS5314 (wild-type)
  MIC: 1 µg/mL (≈ 1.08 µM)
[5]; C. albicans NR-29448
  MFC: 2 µg/mL (≈ 2.16 µM)
[6]; C. gattii NR 43209
  MIC: 1 µg/mL (≈ 1.08 µM)
[6]; C. gattii NR 43210
  MIC: 0.5 µg/mL (≈ 0.541 µM)
[7]; C. neoformans NR 41298
  MIC: 1 µg/mL (≈ 1.08 µM)
[7]; C. neoformans NR 41300
  MIC: 1 µg/mL (≈ 1.08 µM)
[7]; C. neoformans NR 48770
  MIC: 0.5 µg/mL (≈ 0.541 µM)
[8]; ATCC22019, C. parapsilosis ATCC 22019
  MIC: 0.5 µg/mL (≈ 0.541 µM)
[8]; C. parapsilosis CAB 502638
  MIC: 0.5 µg/mL (≈ 0.541 µM)
[9]
  fungistatic or fungicidal activity: fungicidal
[10]
  MIC: > 128 µg/mL
[11]
  MIC: > 128 µg/mL
[12]
  MIC: > 128 µg/mL

## Cc1nc(-c2ccc(-c3ccccc3)cc2)sc1-c1nnc(NC2CCNC2)o1 (stereo not drawn) [Compound 10, 5-{2-[(1,1’-Biphenyl)-4-yl]-4-methylthiazol-5-yl}-N-(pyrrolidin-3-yl)-1,3,4-oxadiazol-2-amine]
[5]; C. albicans SS5314 (wild-type)
  MIC: 8 µg/mL (≈ 19.8 µM)
[13]
  MIC: > 64 µg/mL
other
  melting point: 116 to 117 °C
[14]
  MIC: 32 µg/mL (≈ 79.3 µM)
[15]
  MIC: > 64 µg/mL
[16]
  MIC: > 64 µg/mL
